These results are taken from US20250102493A1, “COMPOSITIONS AND METHODS FOR TREATMENT OF ANEUPLOID CANCERS” (Yale University, priority 2023, published 2025).

The structures appear in SMILES notation.

For one test, the system named is HAP1 UCK2-knockout cells. Nature of the test: 72-hour drug assay in UCK2-knockout HAP1 cells. The format is cell-based. Particulars: haploid HAP1 cell line, UCK2 deleted with CRISPR. The text has this:
(§1) Following this, the cells were harvested and counted.
HAP1 cells harboring a CRISPR-induced frameshift mutation in the UCK2 gene were purchased from Horizon Discovery (cat. no. HZGHC007067c006). Loss of UCK2 expression was verified by western blotting.
First, as the mechanism of many cancer drugs is poorly understood (Lin, et al., Sci. Transl. Med. 11 (2019), Lin & Sheltzer, Nat. Rev. Genet. 21, 671-682 (2020)),whether the cytotoxicity of RX-3117 and 3-deazauridine requires UCK2 expression was assessed.

The test system of a further test is A2780 cells. Nature of the test: 72-hour drug assay in A2780 1q-trisomic and 1q-disomic cells. Particulars: for sensitivity of cells harboring a trisomy of chromosome 1q compared to isogenic cells containing two copies of chromosome 1q: A2780, FIG. 6D; for sensitivity of 1q disomic cells compared to 1q trisomic cells: A2780 WT (1q trisomic) and engineered 1q disomic clones C1-C4. The format is cell-based, human.
Description: as §1

Test [1] has as its system MCF10A cells. Nature of the test: 72-hour drug assay in MCF10A 1q-trisomic and 1q-disomic cells. Particulars: FIG. 6D. The format is cell-based, human.
Description: as §1

Test [2] deals with MCF10A cells. Nature of the test: Cellular competition between 1q-trisomic and 1q-disomic MCF10A cells. The format is cell-based, human. The protocol:
For the competition experiment, two independent experiments were performed: one when cells were mixed at an 80-20 ratio and one when cells were mixed at a 90:10 ratio. Similar results were obtained in both experiments.
Whether the greater sensitivity of 1q-trisomic cells to UCK2 substrates could be used to re-direct cellular evolution away from aneuploidy and towards a disomic state with lower malignant potential was assessed (FIG. 6E). Fluorescently-labeled 1q-trisomic and 1q-disomic MCF10A cells were mixed at a ratio of 20:80 and then co-cultured the two cell populations. After nine days of growth in drug-free medium, the trisomic cells had expanded to include 75% of the culture, but when the same cell populations were grown in the presence of 500 nM 3-deazauridine, the trisomic population decreased to include only 4% of the final culture (FIG. 6F).

Another test relates to NCI-60 cell line panel. Particulars: NCI-60 panel (Luna et al.); cited from earlier work.
The next test deals with A2058 cells. Nature of the test: 72-hour drug assay in A2058 1q-trisomic and 1q-disomic cells. The format is cell-based, human.
Description: as §1

For another test, the system named is AGS cells. Kind of test: 72-hour drug assay in AGS 1q-trisomic and 1q-disomic cells. The format is cell-based, human.
Description: as §1

Another test relates to DLD1 colon cancer cells. Kind of test: Drug sensitivity of DLD1 trisomy-1 cells and parental DLD1 cells. Particulars: P<0.005; t-test. The format is cell-based. The protocol: The DLD1 trisomy 1 clone was generated as previously described in ref (Vasudevan, et al., Dev. Cell. 52, 413-428.e6 (2020)). In brief, DLD1 cells were transiently treated with 1 μM AZ3146 (Selleck Chemicals; cat. no. S2731) for 24 hours, and then the drug was washed out and the cells were allowed to recover for 24 hours. Following the recovery passage, single-cell sorting was performed to isolate individual aneuploid clones. SMASH-Seq was used to identify a clone harboring a trisomy of chromosome 1.
as §1

Turning to `O=C1C=CN([C@@H]2O[C@H](CO)[C@@H](O)[C@H]2O)C(=O)C1` [3-deazauridine], in the test on HAP1 UCK2-knockout cells, the “response of UCK2-knockout cells to the compound” value was “highly resistant”. Further, the “sensitivity of cells harboring a trisomy of chromosome 1q compared to isogenic cells containing two copies of chromosome 1q” value with A2780 cells and in the test on MCF10A cells [1] was “more sensitive” in each case. For the same compound, the “sensitivity of 1q disomic cells compared to 1q trisomic cells” value in the test on A2780 cells is given as “less sensitive”. Besides, the “trisomic population in the final culture” value with MCF10A cells [2] (500 nM 3-deazauridine, nine days, 1q-trisomic and 1q-disomic MCF10A mixed at 20:80, 75% in drug-free medium) stood at 4%. For the same compound, in the test with MCF10A cells [2] (trisomic and disomic MCF10A mixed at 20% to 80%, FIG. 6F), the “effect on outgrowth of the 1q-trisomic subpopulation” value is recorded as “prevents the outgrowth of the 1q-trisomic subpopulation”. For the same compound, the “correlation of UCK2 expression with sensitivity to the compound” value in the test with NCI-60 cell line panel was “higher UCK2 expression correlates with greater sensitivity”.
For the compound `Nc1ccn([C@@H]2C(F)=C(CO)[C@@H](O)[C@H]2O)c(=O)n1` [RX-3117], in the test with HAP1 UCK2-knockout cells, the “response of UCK2-knockout cells to the compound” value is reported as “highly resistant”. Further, in the test with A2780 cells (1q-disomic A2780 cells), the “effect of ectopic overexpression of UCK2 cDNA on sensitivity to the compound” value was “increase sensitivity”. For the same compound, in the test with A2780 cells (1q-trisomic A2780 cells), the “effect of deleting a single copy of UCK2 on sensitivity to the compound” value is reported as “decrease sensitivity”. For the same compound, the “sensitivity of cells harboring a trisomy of chromosome 1q compared to isogenic cells containing two copies of chromosome 1q” value with A2780 cells and with MCF10A cells [1] was “more sensitive” throughout. In addition, in the test with A2780 cells, the “sensitivity of 1q disomic cells compared to 1q trisomic cells” value is “less sensitive”. Besides, the “difference in sensitivity between 1q-trisomic and 1q-disomic cells” value in the test with A2058 cells and in the test on AGS cells was “not evident” in each case. Also, in the test with DLD1 colon cancer cells, the “sensitivity of DLD1 trisomy-1 cells compared to the parental DLD1 cells” value is listed as “significantly more sensitive”. Further, the “correlation of UCK2 expression with sensitivity to the compound” value in the test with NCI-60 cell line panel was “higher UCK2 expression correlates with greater sensitivity”.
